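Growth conditions: 96-well plates. Treatment: test compound, 48 hours, 5 concentrations. Analysis: linear interpolation between bracketing concentrations; unreached endpoints set to highest concentration. TGI: concentration producing complete growth inhibition.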
Assays:
Experiment in all cases: DTP human tumour cell line panel, 48 h
A549 NSCLC = test system: A549 NSCLC
ACHN renal = test system: ACHN renal
HCC-2998 colon = test system: HCC-2998 colon
IGROV1 ovarian = test system: IGROV1 ovarian
KM12 colon = test system: KM12 colon
LOX IMVI melanoma = test system: LOX IMVI melanoma
M14 melanoma = test system: M14 melanoma
MDA-MB-435 = test system: MDA-MB-435
MDA-N = test system: MDA-N
NCI/ADR-RES ovarian = test system: NCI/ADR-RES ovarian
PC-3 prostate = test system: PC-3 prostate
RXF 393 renal = test system: RXF 393 renal
SK-MEL-5 melanoma = test system: SK-MEL-5 melanoma
SN12C renal = test system: SN12C renal
SNB-75 CNS = test system: SNB-75 CNS
T-47D breast = test system: T-47D breast
UACC-257 melanoma = test system: UACC-257 melanoma
OVCAR-8 ovarian = test system: OVCAR-8 ovarian

Row | SMILES | TGI (A549 NSCLC) | TGI (ACHN renal) | TGI (HCC-2998 colon) | TGI (IGROV1 ovarian) | TGI (KM12 colon) | TGI (LOX IMVI melanoma) | TGI (M14 melanoma) | TGI (MDA-MB-435) | TGI (MDA-N) | TGI (NCI/ADR-RES ovarian) | TGI (PC-3 prostate) | TGI (RXF 393 renal) | TGI (SK-MEL-5 melanoma) | TGI (SN12C renal) | TGI (SNB-75 CNS) | TGI (T-47D breast) | TGI (UACC-257 melanoma) | TGI (OVCAR-8 ovarian)
1 | CC(=O)c1ccc2c(c1)CC1(C2)Cc2ccc3c(c2C1=O)CCC3 (stereo not drawn) | > 100 µM | > 100 µM | 37.8 µM | > 100 µM | > 100 µM | > 100 µM | 64.8 µM | 45.3 µM | 94.6 µM | 71.9 µM | > 100 µM | 97 µM | 28.4 µM | > 100 µM | 91.3 µM | 94.5 µM | 38.2 µM | –
2 | C#Cc1cc(Br)c(OC(=O)C(C)(C)C)c(-c2cc(C#C)cc(Br)c2OC(=O)C(C)(C)C)c1 | > 100 µM | 73.8 µM | 90.7 µM | > 100 µM | > 100 µM | 49.1 µM | > 100 µM | > 100 µM | > 100 µM | > 100 µM | > 100 µM | 46.7 µM | > 100 µM | > 100 µM | – | > 100 µM | > 100 µM | > 100 µM
3 | Oc1cc(N2CCCC2)ccc1/C=N/N1C(=S)N(c2ccccc2)C(=Nc2ccccc2)C1=Nc1ccccc1 | > 100 µM | > 100 µM | > 100 µM | > 100 µM | > 100 µM | – | > 100 µM | > 100 µM | > 100 µM | > 100 µM | > 100 µM | 46.1 µM | > 100 µM | > 100 µM | – | > 100 µM | > 100 µM | > 100 µM
4 | Oc1c(Br)cc(/C=C/c2cccc(/C=C/c3cc(Br)c(O)c(Br)c3)n2)cc1Br | 14.9 µM | 52.3 µM | 18.8 µM | 27.7 µM | 25.2 µM | 28.8 µM | 34.9 µM | 46.5 µM | 39.6 µM | 85.6 µM | 25.1 µM | – | 19.8 µM | 24.3 µM | 31.6 µM | 31.4 µM | 37.2 µM | 41.7 µM
5 | CN(C)c1ccc(C2CC(c3ccc4ccccc4c3O)=NN2c2ccc([N+](=O)[O-])cc2[N+](=O)[O-])cc1 (stereo not drawn) | > 100 µM | > 100 µM | > 100 µM | > 100 µM | > 100 µM | – | > 100 µM | 34.6 µM | 30.5 µM | > 100 µM | > 100 µM | > 100 µM | – | > 100 µM | > 100 µM | > 100 µM | > 100 µM | > 100 µM
6 | COc1ccc(N=NC(=Nc2ccc(Cl)cc2)c2ccc(N(CCC#N)CCC#N)cc2)cc1 | > 100 µM | > 100 µM | > 100 µM | > 100 µM | > 100 µM | – | > 100 µM | > 100 µM | > 100 µM | > 100 µM | > 100 µM | > 100 µM | > 100 µM | > 100 µM | > 100 µM | 78 µM | 64.7 µM | > 100 µM
7 | CCOC(=O)c1cc(Br)c(-c2cc(C)no2)[nH]1 | > 100 µM | > 100 µM | – | – | 24.7 µM | > 100 µM | > 100 µM | 38.8 µM | > 100 µM | > 100 µM | > 100 µM | > 100 µM | 47.5 µM | > 100 µM | > 100 µM | > 100 µM | > 100 µM | > 100 µM
8 | CCN(CC)C1C(=O)NC1C#Cc1ccccc1 (stereo not drawn) | – | > 100 µM | > 100 µM | > 100 µM | > 100 µM | > 100 µM | > 100 µM | > 100 µM | > 100 µM | > 100 µM | > 100 µM | > 100 µM | > 100 µM | > 100 µM | > 100 µM | > 100 µM | > 100 µM | > 100 µM
9 | CC(NC(=O)c1ccc(NP(=O)(OCc2ccc([N+](=O)[O-])o2)N(C)CCCCCl)cc1)c1ccc(OCC2CCCCC2)c(C(N)=O)c1 (stereo not drawn) | 33.2 µM | > 100 µM | 24.2 µM | 45.9 µM | 32 µM | 27 µM | – | 33.6 µM | 62.4 µM | > 100 µM | > 100 µM | 31 µM | 17 µM | 47.5 µM | 31.7 µM | 25.5 µM | 26.6 µM | > 100 µM
10 | CN(C(=O)C1=CCC2(CC1)OCCO2)c1ccccc1I | > 100 µM | > 100 µM | > 100 µM | > 100 µM | > 100 µM | > 100 µM | > 100 µM | > 100 µM | > 100 µM | > 100 µM | > 100 µM | – | > 100 µM | > 100 µM | > 100 µM | > 100 µM | > 100 µM | > 100 µM
11 | O=C1/C(=C/c2ccc(Oc3ccccc3)cc2)N=C(c2ccccc2)N1c1ccc(S(=O)(=O)Nc2nccs2)cc1 | > 100 µM | > 100 µM | 6.87 µM | – | 53.7 µM | 70.5 µM | 72.3 µM | 6.86 µM | 15.8 µM | 46.6 µM | > 100 µM | 93.4 µM | 49.8 µM | > 100 µM | 58.1 µM | 77.1 µM | 92.5 µM | –

— PubChem BioAssay (NCI)
